The target of assay [1] is T1, Interstitial collagenase (Homo sapiens, UniProt P03956).
T1 sequence (P03956 whole entry): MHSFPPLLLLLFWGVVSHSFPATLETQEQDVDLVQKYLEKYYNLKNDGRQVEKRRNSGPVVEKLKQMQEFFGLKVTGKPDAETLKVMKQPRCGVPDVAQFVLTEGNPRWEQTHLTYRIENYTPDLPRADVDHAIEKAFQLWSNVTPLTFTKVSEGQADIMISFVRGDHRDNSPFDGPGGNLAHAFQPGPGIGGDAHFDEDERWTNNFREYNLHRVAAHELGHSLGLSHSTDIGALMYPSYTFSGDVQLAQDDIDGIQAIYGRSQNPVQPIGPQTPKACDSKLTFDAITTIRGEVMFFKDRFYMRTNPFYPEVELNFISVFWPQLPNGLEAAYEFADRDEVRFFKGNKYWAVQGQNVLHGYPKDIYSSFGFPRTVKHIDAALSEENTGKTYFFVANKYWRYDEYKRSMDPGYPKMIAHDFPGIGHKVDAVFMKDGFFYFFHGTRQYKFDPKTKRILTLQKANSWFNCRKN
Put plainly: 50 percent inhibition of human Matrix metalloprotease-1 by the cleavage of fluorogenic peptide MCA-Pro-Leu-Gly-Leu-Dpa-ala-Arg-NH2.

Assay [2] deals with 72 kDa type IV collagenase (Homo sapiens, UniProt P08253).
Chain of 72 kDa type IV collagenase (P08253 whole entry): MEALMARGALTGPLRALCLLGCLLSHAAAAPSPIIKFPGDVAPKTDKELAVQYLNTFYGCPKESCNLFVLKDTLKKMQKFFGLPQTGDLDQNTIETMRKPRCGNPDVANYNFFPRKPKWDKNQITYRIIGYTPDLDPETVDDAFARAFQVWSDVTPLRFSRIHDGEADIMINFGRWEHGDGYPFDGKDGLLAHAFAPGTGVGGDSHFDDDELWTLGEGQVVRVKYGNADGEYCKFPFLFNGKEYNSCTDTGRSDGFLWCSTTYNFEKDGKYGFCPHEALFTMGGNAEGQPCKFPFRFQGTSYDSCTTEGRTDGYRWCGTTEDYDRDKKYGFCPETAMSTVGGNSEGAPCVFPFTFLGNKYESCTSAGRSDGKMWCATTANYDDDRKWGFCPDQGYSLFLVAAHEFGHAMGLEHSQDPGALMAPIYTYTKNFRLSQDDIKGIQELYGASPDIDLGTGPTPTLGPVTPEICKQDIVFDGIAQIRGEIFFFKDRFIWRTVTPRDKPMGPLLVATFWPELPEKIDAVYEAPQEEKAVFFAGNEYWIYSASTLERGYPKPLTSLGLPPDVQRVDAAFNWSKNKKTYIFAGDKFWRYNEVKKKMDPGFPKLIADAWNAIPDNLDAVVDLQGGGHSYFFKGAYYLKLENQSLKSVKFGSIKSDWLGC
Assay [3] concerns the target Collagenase 3 (Homo sapiens, UniProt P45452).

What is called IC50 is the concentration needed to halve the response being measured. A high value points to weaker potency.

Consider `O=C(NO)c1ccccc1S(=O)(=O)N1CCC(Oc2ccc(C(F)(F)F)cc2)C1` (stereo not drawn), for which the IC50 in assay [1] is more than 10 µM.
Take `O=C(NO)c1ccccc1S(=O)(=O)N1CCC(Oc2ccc(OC(F)(F)F)cc2)CC1`: in assay [2], the IC50 came to 2 nM.
As to `O=C(NO)c1c(F)cccc1S(=O)(=O)N1CCC(Oc2ccc(C(F)(F)F)cc2)CC1`, the IC50 in assay [2] worked out at 3.3 nM.
In turn, `O=C(NO)c1ccccc1S(=O)(=O)N1CCC(Oc2ccc(C(F)(F)F)cc2)CC1` displayed an IC50 in assay [3] of 28 nM.
The compound `COc1ccc(C(=O)NC2CCN(S(=O)(=O)c3ccccc3C(=O)NO)C2)cc1` (single isomer, unassigned; (-)) had an IC50 in assay [1] of more than 10 µM.
For the compound `O=C(NO)c1ccccc1S(=O)(=O)N1CCC(c2ccccc2)CC1`, the figures for the 50% inhibitory concentration (IC50) in assay [3] and in assay [2] were 520 nM and 70 nM, respectively.
`O=C(NO)C1(CS(=O)(=O)c2ccc(Oc3ccc(Cl)cc3)cc2)CCOCC1` [CTS-1027]: the half-inhibitory concentration (IC50) in assay [1] was 0.8 µM.

The values are drawn from ChEMBL document CHEMBL1133364, “Synthesis and activity of selective MMP inhibitors with an aryl backbone” (Bioorg Med Chem Lett, 2000).
